The results in this text go back to article PMC11982498 (Redox Biology, 2025).

For assay [1], the system named is BCL-2, C-MYC and VEGF protein expressions in SH-SY5Y cells. Kind of assay: Western blot in SH-SY5Y cells. In kind it is cell-based. The following applies: increasing concentration of B14, 24 h. On the procedure: (§1) Protein samples (25–40 μg) were separated using 10 % SDS-PAGE and subsequently transferred onto PVDF membranes (0.22 μm, Servicebio, Guangzhou, China) via electro transfer. Following blocking with TBST solution (Servicebio, Guangzhou, China) containing 5 % BSA (Solarbio, Beijing, China) for approximately 60 min at room temperature, the membrane was exposed to various primary antibodies overnight at 4 °C on a rotating shaker. Then, the membranes were incubated with HRP-conjugated secondary antibody (Affinity, Changzhou, China) for 2 h. Protein bands were then detected using an ECL kit. The signal intensity of each target protein was quantified using Image J 1.8.0 software (Bio-Rad Laboratories, California, USA).
Primary antibodies for Western blot analysis include BCL-2 (affinity biosciences OH, Cat# AF6139, USA), BAX (affinity biosciences OH, Cat# AF0120, USA), VEGF (affinity biosciences OH, Cat# AF5131, USA), C-MYC (affinity biosciences OH, Cat# AF0358, USA), Caspase9 (affinity biosciences OH, Cat# AF6348, USA), cleaved-Caspase9 (affinity biosciences OH, Cat# AF5240, USA), Caspase3 (affinity biosciences OH, Cat# AF6311, USA), cleaved-Caspase3 (affinity biosciences OH, Cat# AF7022, USA), and Cyto-C (affinity biosciences OH, Cat# AF6139, USA).
In general terms: Immunoblotting shows a protein as a band on a membrane.

Another assay relates to SH-SY5Y cells. Kind of assay: JC-1 / Mito-tracker / H2DCFDA / Ca2+ staining in Aβ1-42 induced cell model. The following applies: 25 μM Aβ1-42 induced model. In kind it is cell-based. On the procedure: SH-SY5Y cells were plated on 96 well plates. After 24h treatment with or without B14 in 25 μM Aβ1-42 induced cell model, the cells were washed for three times with cold PBS. Then cells were incubated with Hoechst 33342 solution (Sigma, 10 μg/mL) and H2DCFDA probe (10 μM, sigma), as well as Mito-tracker deep red (100 nM, sigma) for 10 min at 37 °C in the dark. All the samples were photographed by using FV3000 (Olympus). SH-SY5Y cells were plated on 6 well plates. After 24h treatment with B14 in 25 μM Aβ1-42 induced cell model, cells were incubated with JC-1 (5 μg/mL, sigma) for 30 min at 37 °C in the dark. Fluorescence detection was carried out by using EVOS FL Auto.

For assay [2], the system named is BCL-2, BAX, Cyto-C, Cleaved-caspase 9, Cleaved-caspase 3 in hippocampus of APP/PS1 mice. As to the kind of experiment: Western blot and immunofluorescence of apoptosis related factors in hippocampus. In kind it is in vivo. The following applies: B14 10, 20, 40 mg/kg i.p. every other day. How it is done:
as §1
Five months old male APP/PS1 mice, weighing 25–33 g, were purchased from Guangdong Medical Laboratory Animal Center and housed in the Laboratory Animal Center of Sun Yat-sen University (Guangzhou, China) for experimentation. All procedures were approved by the Animal Care and Use Committee of Sun Yat-sen University and complied with legal requirements and national guidelines for the care and maintenance of laboratory animals (Approval No. SYSU-IACUC-2024-002032). The mice were housed in a specific pathogen-free environment with a controlled temperature of 22 ± 1 °C and a 12-h dark/light cycle. […]

Assay [3] deals with APP/PS1 transgenic mice. As to the kind of experiment: TEM of hippocampus microstructure. It is filed as in vivo. The following applies: vs model group. An excerpt:
(§2) Five months old male APP/PS1 mice, weighing 25–33 g, were purchased from Guangdong Medical Laboratory Animal Center and housed in the Laboratory Animal Center of Sun Yat-sen University (Guangzhou, China) for experimentation. All procedures were approved by the Animal Care and Use Committee of Sun Yat-sen University and complied with legal requirements and national guidelines for the care and maintenance of laboratory animals (Approval No. SYSU-IACUC-2024-002032). The mice were housed in a specific pathogen-free environment with a controlled temperature of 22 ± 1 °C and a 12-h dark/light cycle. The mice were fed with a standard diet, and 30 mice were randomly divided into 6 groups (N = 5). Compound B14 was dissolved in saline and administered at doses of 10, 20, or 40 mg/kg. APP/PS1 male mice were grown until 6 months of age, and then injected intraperitoneally with compound B14 every other day for 60 days. Behavioral experiments were then conducted, and tissue specimens were collected for biochemical analysis.
After the behavioral tests, the mice were anesthetized and perfused with 0.1 M pre-cooled phosphate-buffered saline for 5 min, followed by 4 % pre-cooled paraformaldehyde until the mice were stiff. The hippocampi were then extracted and fixed in 3 % pre-cooled glutaraldehyde solution for 6 h, cut into 0.5–1 mm^3 blocks, and post-fixed in 1 % osmium tetroxide for 60 min. […]

Another assay concerns bEnd.3. As to the kind of experiment: MTT cytotoxicity assay, bEnd.3. It is filed as cell-based. The following applies: BEND3; incubation for 48 h. On the technique in general: Formazan colour is commonly taken as a measure of viable cells.
In assay [4] the test system is bio-BCL-2 (BCL-2 IM) (DNA, i motif) CAGCCCCGCTCCCGCCCCCTTCCTCCCGCGCCCGCCCCT
As to the kind of experiment: SPR. The following applies: K+ 100 mM; 20 mM MES, pH 5.5, 25 °C.

In assay [5] the test system is APP/PS1 transgenic mice. As to the kind of experiment: Elevated plus maze (EPM). It is filed as in vivo. The following applies: B14 10, 20, 40 mg/kg i.p. every other day.
Source text: as §2
The spatial memory and learning abilities of the mice were assessed using Morris water maze (MWM), novel object recognition (NOR) and nesting experiments (NBT). The anxiety and depressive behaviors were evaluated through the open field test (OFT) and elevated plus maze (EPM). Detailed experimental procedures are provided in the supplementary information. […]

In assay [6] the target is BCL-2 gene promoter i-motif. As to the kind of experiment: SPR binding to BCL-2 promoter i-motif. Particulars: MES buffer pH 5.5, 25 °C. How it is done:
SPR measurement was performed on a ProteOn XPR36 protein interaction array system (Bio-Rad Laboratories, Hercules, California, USA) using a Neutravidin-coated GLH sensor chip. BCL-2 i-motif binding analysis was performed following a published method without significant modification. For immobilization, 5′-biotin-labeled DNA oligomers at 800 nM annealed in 1 × MES buffer at pH 5.5 by heating at 95 °C for 5 min, were attached to a reptavidin-coated sensor chip. Compounds were prepared through serial dilution with flowing buffer (20 mM MES, 100 mM KCl, pH 5.5 for i-motif) in at least 6 concentrations, which were simultaneously injected at a flow rate of […] for a 120 s of association phase, followed by 250 s of dissociation phase at 25 °C. Langmuir model was used for fitting kinetic data, which was analyzed with ProteOn manager software. KD values were determined through equation KD = kd/ka. Compound A22 was used as a positive control, and other compounds were selected as candidates only if their KD values for binding to BCL-2 i-motif were similar to that of A22.
In general terms: In SPR one partner is held on a chip, and binding of the other changes the refractive index at the surface.

As usually defined, the IC50 is the concentration at which inhibition is half-maximal. A lower IC50 goes with greater potency in that assay. The KD is the concentration at which binding is half-saturated. Low values mean higher affinity, high ones lower affinity. The term Kd denotes the equilibrium constant for the complex coming apart. High values mean a looser complex, low ones a tighter complex. For `O=C(CCN1CCOCC1)Nc1ccc2c(c1)c(=O)c1cc(NC(=O)CCN3CCOCC3)ccc1n2-c1ccc2occc2c1` [Compound B14], in assay [1], the “BCL-2 translation (Western blot)” value is “up-regulate BCL-2 translation in SH-SY5Y cells in a dose-dependent manner”; the “C-MYC and VEGF expression (Western blot)” value is “without significant effect on C-MYC and VEGF expression”. Also, in the assay on SH-SY5Y cells, the “intracellular Ca^2+ (Fluo-5AM)” value is “could modulate aberrantly metabolized Ca^2+ in model cells in a dose-dependent manner”; the “oxidative stress (H2DCFDA) and mitochondrial number (MitoTracker)” value was “could attenuate oxidative stress without changing mitochondrial number”; the “red/green fluorescence intensity ratio (JC-1, mitochondrial membrane potential)” value is listed as “could reduce the occurrence of early apoptosis”. Besides, in assay [2], the “expression level of BCL-2 in hippocampus” value is “effectively increased the expression level of BCL-2”; the “expression levels of pro-apoptotic factors in hippocampus” value was “decreased the expression levels of BAX, Cyto-C, Cleaved-caspase 9 and Cleaved-caspase 3”. For the same compound, in the assay with APP/PS1 transgenic mice [3], the “hippocampal ultrastructure (myelin, synapses, mitochondria; TEM)” value is “the degree of mitochondrial damage was much reduced”. In addition, in the assay with bEnd.3, the IC50 was over 100 µM. In assay [4], this compound gave a KD of 2.13 µM. For the same compound, the “number of entries into the open arm and retention time (EPM)” value in the assay on APP/PS1 transgenic mice [5] is listed as “significantly increased”. Further, the Kd in assay [6] stood at 2.13 µM.
